Assay results as given in ChEMBL document CHEMBL1811837 (Bioorg Med Chem, 2011).
Calls of active or inactive are those of the source. The rule behind the calls is not given here.

Legend:
[1] = biological target: Sigma non-opioid intracellular receptor 1 (Cavia porcellus, UniProt Q60492)
[2] = biological target: T1, D(2) dopamine receptor (Homo sapiens, UniProt P14416); assay: biochemical
[3] = biological target: T2, D(3) dopamine receptor (Homo sapiens, UniProt P35462); assay: biochemical
[4] = biological target: T3, D(4) dopamine receptor (Homo sapiens, UniProt P21917); assay: biochemical
T3 sequence (P21917 whole entry): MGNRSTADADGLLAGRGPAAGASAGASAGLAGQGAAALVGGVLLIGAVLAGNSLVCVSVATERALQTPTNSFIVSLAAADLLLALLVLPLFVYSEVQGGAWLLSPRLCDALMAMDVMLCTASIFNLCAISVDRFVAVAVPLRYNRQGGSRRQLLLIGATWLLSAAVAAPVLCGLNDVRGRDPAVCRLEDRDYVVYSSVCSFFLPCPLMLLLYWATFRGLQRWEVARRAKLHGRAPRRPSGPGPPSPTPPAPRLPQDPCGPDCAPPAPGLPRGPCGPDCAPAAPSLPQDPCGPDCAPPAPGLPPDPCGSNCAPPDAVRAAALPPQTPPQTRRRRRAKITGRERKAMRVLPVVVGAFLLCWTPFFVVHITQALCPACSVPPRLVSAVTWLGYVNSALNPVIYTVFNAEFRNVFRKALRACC

[5] = biological target: T1, D(2) dopamine receptor
[6] = biological target: T1, D(2) dopamine receptor; assay: Partial agonist activity at human recombinant D2L receptor expressed in HEK cells assessed as inhibition of forskolin-induced [3H]cAMP production at 10 times Ki after 20 mins by […]; assay type: functional, cell-based; conditions: HEK293
[7] = biological target: T2, D(3) dopamine receptor; assay: Partial agonist activity at human recombinant D3 receptor expressed in HEK cells assessed as inhibition of forskolin-induced [3H]cAMP production at 10 times Ki after 20 mins by […]; assay type: functional, cell-based; conditions: HEK293
[8] = biological target: T1, D(2) dopamine receptor; assay: Intrinsic efficacy at human recombinant D2L receptor expressed in HEK cells assessed as assessed as inhibition of forskolin-induced [3H]cAMP production after 20 mins by […]; assay type: functional, cell-based; design: scale not given: the % may be the effect or the level left; conditions: HEK293

T2 sequence (P35462 whole entry): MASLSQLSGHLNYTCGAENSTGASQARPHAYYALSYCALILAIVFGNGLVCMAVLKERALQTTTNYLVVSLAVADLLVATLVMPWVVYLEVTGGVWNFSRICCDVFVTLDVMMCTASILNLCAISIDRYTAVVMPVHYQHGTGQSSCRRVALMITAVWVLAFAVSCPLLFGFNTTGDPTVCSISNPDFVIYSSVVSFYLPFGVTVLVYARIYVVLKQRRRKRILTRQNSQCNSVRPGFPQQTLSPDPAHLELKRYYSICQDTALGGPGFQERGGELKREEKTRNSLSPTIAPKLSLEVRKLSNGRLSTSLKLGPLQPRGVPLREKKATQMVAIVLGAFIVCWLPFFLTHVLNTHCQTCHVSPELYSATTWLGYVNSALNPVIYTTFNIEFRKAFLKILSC
T1 sequence (P14416 whole entry): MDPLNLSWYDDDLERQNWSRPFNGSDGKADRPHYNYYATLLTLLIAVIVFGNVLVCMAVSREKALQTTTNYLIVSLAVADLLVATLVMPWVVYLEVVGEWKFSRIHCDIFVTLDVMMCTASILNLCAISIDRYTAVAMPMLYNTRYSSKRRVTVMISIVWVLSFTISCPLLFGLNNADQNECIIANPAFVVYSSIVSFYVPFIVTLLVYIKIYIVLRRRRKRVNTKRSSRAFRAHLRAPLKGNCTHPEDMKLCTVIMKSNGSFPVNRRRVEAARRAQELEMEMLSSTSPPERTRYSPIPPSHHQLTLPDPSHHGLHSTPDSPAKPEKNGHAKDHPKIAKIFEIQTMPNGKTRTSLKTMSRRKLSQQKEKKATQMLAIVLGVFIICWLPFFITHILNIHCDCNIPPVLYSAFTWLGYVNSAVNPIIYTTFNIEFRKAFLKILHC
Chain of Sigma non-opioid intracellular receptor 1 (Q60492 whole entry): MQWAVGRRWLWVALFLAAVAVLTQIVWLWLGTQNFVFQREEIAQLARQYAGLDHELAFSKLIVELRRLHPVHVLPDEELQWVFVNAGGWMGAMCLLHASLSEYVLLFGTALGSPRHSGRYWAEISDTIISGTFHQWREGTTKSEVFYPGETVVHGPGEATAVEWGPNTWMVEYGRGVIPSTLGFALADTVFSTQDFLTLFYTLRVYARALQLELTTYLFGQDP

Row | SMILES | Ki [1] [nM] | Ki [2] [nM] | Ki [3] [nM] | Ki [4] [nM] | Ki [5] [nM] | Activity [6] | Activity [7] | Activity [8] [%]
1 | COc1ccccc1N1CCN(CCCCOc2ccc3c(c2)NC(=O)CC3)CC1 | 1180 | – | – | – | – | – | – | –
2 | CN1CN(c2ccccc2)C2(CCN(CCCCOc3ccc4c(c3)NC(=O)CC4)CC2)C1=O | – | 611 | 427 | 865 | – | – | – | –
3 | COc1ccc(N2CCN(CCCCOc3ccc4c(c3)NC(=O)CC4)CC2)cc1 | 170 | 102 | 930 | 359 | – | – | – | –
4 | COc1ccccc1N1CCN(CCCCCOc2ccc3c(c2)NC(=O)CC3)CC1 | 1350 | – | – | – | – | – | – | –
5 | O=C1CCc2ccc(OCCCCN3CCC(O)(c4ccc(Cl)cc4)CC3)cc2N1 | 417 | 2600 | 1540 | 1310 | – | – | – | –
6 | O=C1CCc2ccc(OCCCCN3CCC(n4c(=O)[nH]c5ccccc54)CC3)cc2N1 | – | 145 | 879 | 1030 | – | – | – | –
7 | COc1ccc(N2CCN(CCCCOc3ccc4c(c3)NC(=O)CC4)CC2)c(OC)c1 | 620 | 25.3 | 785 | 286 | – | – | – | –

Continued by falling Ki [3], values first:

Row | Ki [1] [nM] | Ki [2] [nM] | Ki [3] [nM] | Ki [4] [nM] | Ki [5] [nM] | Activity [6] | Activity [7] | Activity [8] [%] | SMILES
8 | – | 309 | 574 | 1350 | – | – | – | – | O=C1CCc2ccc(OCCCCN3CCC(n4c(=O)[nH]c5cc(Cl)ccc54)CC3)cc2N1
9 | 377 | 4.6 | 251 | 27.2 | – | – | – | – | COc1cc(C)ccc1N1CCN(CCCCOc2ccc3c(c2)NC(=O)CC3)CC1
10 | 13600 | 0.26 | 13.5 | 185 | – | Active | Active | 16 | O=C1CCc2ccc(OCCCCN3CCN(c4ccccc4OCCF)CC3)cc2N1
11 | 759 | – | 7.4 | 38.5 | 4.8 | – | – | – | COc1ccccc1N1CCN(CCCOc2ccc3c(c2)NC(=O)CC3)CC1
12 | 2600 | 2.6 | 5.7 | 52.7 | – | – | – | – | COc1ccccc1N1CCN(CCCOc2ccc3ccc(=O)[nH]c3c2)CC1
13 | 2630 | 0.14 | 5.4 | 30.1 | – | – | – | – | COc1ccccc1N1CCN(CCCCOc2ccc3ccc(=O)[nH]c3c2)CC1
14 | 1610 | 7.4 | 3.8 | 201 | – | – | – | – | COc1ccccc1N1CCN(CCCCCOc2ccc3ccc(=O)[nH]c3c2)CC1
15 | 20900 | 0.07 | 2.7 | 31.9 | – | – | – | – | O=c1ccc2ccc(OCCCCN3CCN(c4ccccc4OCCF)CC3)cc2[nH]1
